Experimental findings from patent publication US7888329B2, “Substituted aryl piperidinylalkynyladenosines as A2AR agonists” (PGxHealth, LLC, priority 2006, dated 2011) are described below.

Bounds are passed on as bounds.

For orientation: Ki means a dissociation constant, usually derived from enzyme kinetics or from competition with a known ligand.

Test [1] deals with T1, human A1 AR (Homo sapiens, UniProt P30542).
T1 construct: expressed in transfected cells; membranes
T1 sequence (P30542 1-326): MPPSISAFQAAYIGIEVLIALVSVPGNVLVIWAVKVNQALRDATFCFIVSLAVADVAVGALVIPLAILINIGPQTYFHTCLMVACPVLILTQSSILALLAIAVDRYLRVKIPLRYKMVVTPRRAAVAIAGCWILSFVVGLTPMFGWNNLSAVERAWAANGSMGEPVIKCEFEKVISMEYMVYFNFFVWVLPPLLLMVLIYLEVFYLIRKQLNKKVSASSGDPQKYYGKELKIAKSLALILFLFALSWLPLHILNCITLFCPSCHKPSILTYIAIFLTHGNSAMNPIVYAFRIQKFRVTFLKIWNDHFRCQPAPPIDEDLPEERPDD
Kind of test: Radioligand competition binding with 125I-ABA, membranes of CHO K1 cells stably expressing the receptor. The note with it: Ki derived from IC50, class symbols. In general terms: Displacement assays read how much labelled ligand stays bound in the presence of the test substance.

Test [2] concerns the target T2, human A3 AR (Homo sapiens, UniProt P0DMS8).
T2 construct: expressed in transfected cells; membranes
T2 sequence (P0DMS8 1-318): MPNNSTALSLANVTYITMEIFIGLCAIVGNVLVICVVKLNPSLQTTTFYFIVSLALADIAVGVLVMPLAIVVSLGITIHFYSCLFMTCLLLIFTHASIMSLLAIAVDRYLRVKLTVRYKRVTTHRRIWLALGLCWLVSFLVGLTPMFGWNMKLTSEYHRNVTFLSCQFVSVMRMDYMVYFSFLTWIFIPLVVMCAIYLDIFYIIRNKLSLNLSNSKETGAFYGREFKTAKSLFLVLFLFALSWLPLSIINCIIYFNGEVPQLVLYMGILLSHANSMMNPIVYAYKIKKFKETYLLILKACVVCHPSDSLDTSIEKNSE
Kind of test: Radioligand competition binding with 125I-ABA, membranes of HEK 293 cells stably expressing the receptor. The conditions noted are these: Ki derived from IC50, class symbols. The method in brief: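 Triplicate binding with 25 μg membrane protein and 0.5-1 nM agonist radioligand in HE buffer with 1 U/mL adenosine deaminase and 5 mM MgCl2, ±50 μM GTPγS, 3 h at room temperature, then filtration. Nonspecific binding with 50 μM NECA; Ki from IC50 corrected for radioligand and competitor depletion.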

The test system of test [3] is Purified human neutrophils. The test can be described thus: Luminol enhanced chemiluminescence (neutrophil oxidative activity), fMLP stimulated. The format is cell-based. The note with it: Homo sapiens, Neutrophil; read-out: Functional.
Test [4] concerns the target T3, recombinant human A2A receptors (Homo sapiens, UniProt P29274).
T3 construct: expressed in transfected cells; host or cells: Sf9 insect cells infected with virus; membranes
The test can be described thus: Radioligand competition binding with 125I-APE or 125I-ZM241385, Sf9 cell membranes. The conditions noted are these: 125I-APE or 125I-ZM241385, Sf9 membranes; class symbols. The method in brief: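 Membranes (5 μg for A2A; 25 μg for A1) incubated with radioligand at room temperature, 3 h for agonists or 2 h for antagonists, in HE buffer with 1 U/mL adenosine deaminase and 5 mM MgCl2, ± 50 μM GTPγS. Assays ended by filtration; nonspecific binding defined with 50 μM NECA.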

T3 sequence (P29274 whole entry): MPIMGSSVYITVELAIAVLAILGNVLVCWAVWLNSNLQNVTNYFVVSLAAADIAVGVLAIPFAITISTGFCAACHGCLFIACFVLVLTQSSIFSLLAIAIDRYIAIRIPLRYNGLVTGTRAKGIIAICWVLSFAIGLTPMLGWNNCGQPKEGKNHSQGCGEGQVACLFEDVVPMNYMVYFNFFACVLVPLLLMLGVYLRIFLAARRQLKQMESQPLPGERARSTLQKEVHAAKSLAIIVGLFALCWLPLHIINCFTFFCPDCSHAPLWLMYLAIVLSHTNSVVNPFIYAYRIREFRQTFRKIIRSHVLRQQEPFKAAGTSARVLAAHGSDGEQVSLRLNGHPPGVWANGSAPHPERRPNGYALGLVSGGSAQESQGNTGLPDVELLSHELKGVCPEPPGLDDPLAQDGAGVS

As for `Nc1nc(C#CCC2CCN(C(=O)OCc3ccccc3)CC2)nc2c1ncn2[C@@H]1O[C@H](C(=O)NC2CC2)C(O)[C@@H]1O` (stereo partly drawn) [Compound 2, N-Cyclopropyl 2-{3-[1-(benzyloxycarbonyl)-4-piperidinyl]-1-propyn-1-yl}adenosine-5′-uronamide, reference compound], the Ki in test [1] is < 100 nM; in test [2], < 100 nM; in test [4] it was < 1 nM. In test [3], the EC50 is < 1 nM.
Turning to `CCNC(=O)[C@H]1O[C@@H](n2cnc3c(N)nc(C#CCC4CCN(C(=O)Oc5ccc(Cl)cc5)CC4)nc32)[C@@H](O)C1O` (stereo partly drawn) [Compound 26, N-Ethyl 2-{3-[1-(4-chlorophenyloxycarbonyl)-4-piperidinyl]-1-propyn-1-yl}adenosine-5′-uronamide], the figures for the Ki in test [1], in test [2] and in test [4] were < 100 nM, < 10 nM and < 1 nM, respectively. Further, the EC50 in test [3] is < 1 nM.
For `Nc1nc(C#CCC2CCN(C(=O)Oc3ccccc3)CC2)nc2c1ncn2[C@@H]1O[C@H](CO)[C@@H](O)[C@H]1O` [Compound 4, 2-{3-[1-(Phenoxycarbonyl)piperidin-4-yl]propyn-1-yl}adenosine, reference compound], the Ki is < 100 nM in test [1], < 10 nM in test [2] and < 1 nM in test [4]. Besides, the EC50 in test [3] was < 10 nM.
Turning to `CCNC(=O)[C@H]1O[C@@H](n2cnc3c(N)nc(C#CCC4CCN(C(=O)Oc5ccc(F)c(F)c5)CC4)nc32)[C@@H](O)C1O` (stereo partly drawn) [Compound 50, N-Ethyl 2-{3-[1-(3,4-difluorophenoxycarbonyl)-4-piperidinyl]-1-propyn-1-yl}adenosine-5′-uronamide], the inhibitory constant (Ki) was < 100 nM in test [1], < 100 nM in test [2] and < 1 nM in test [4]. Moreover, the EC50 in test [3] is < 1 nM.
For the compound `CCNC(=O)[C@H]1O[C@@H](n2cnc3c(N)nc(C#CCC4CCN(C(=O)Oc5ccc(N)cc5)CC4)nc32)[C@@H](O)C1O` (stereo partly drawn) [Compound 34, N-Ethyl 2-{3-[1-(4-aminophenoxycarbonyl)-4-piperidinyl]-1-propyn-1-yl}adenosine-5′-uronamide], the Ki in test [1] is < 100 nM; in test [2] it was < 100 nM; in test [4] it was < 10 nM. The EC50 in test [3] is < 1 nM.
`Nc1nc(C#CCC2CCN(C(=O)Oc3ccc(Cl)c(Cl)c3)CC2)nc2c1ncn2[C@@H]1O[C@H](CO)C(O)[C@@H]1O` (stereo partly drawn) [Compound 55, 2-{3-[1-((3,4-Chloro)phenoxycarbanoyl)piperidin-4-yl]propyn-1-yl}adenosine]: the Ki in test [1] was < 100 nM; in test [2], < 10 nM; in test [4], < 1 nM. For the same compound, the EC50 in test [3] is < 10 nM.
Regarding `Cc1ccc(OC(=O)N2CCC(CC#Cc3nc(N)c4ncn([C@@H]5O[C@H](CO)[C@@H](O)[C@H]5O)c4n3)CC2)cc1C` [Compound 53, 2-{3-[1-((3,4-Dimethyl)phenoxycarbanoyl)piperidin-4-yl]propyn-1-yl}adenosine], the Ki in test [1] was < 100 nM; in test [2], < 100 nM; in test [4], < 1 nM. Also, the EC50 in test [3] is < 10 nM.
For `CCNC(=O)[C@H]1O[C@@H](n2cnc3c(N)nc(C#CCC4CCN(C(=O)Oc5ccc(OC)cc5)CC4)nc32)[C@@H](O)C1O` (stereo partly drawn) [Compound 15, N-Ethyl 2-{3-[1-(4-methoxyphenoxycarbonyl)-4-piperidinyl]-1-propyn-1-yl}adenosine-5′-uronamide], the inhibition constant (Ki) in test [1] is < 100 nM; in test [2], < 10 nM; in test [4], < 1 nM. Besides, the EC50 in test [3] is < 1 nM.
As for `Nc1nc(C#CCC2CCN(C(=O)OCc3ccc([N+](=O)[O-])cc3)CC2)nc2c1ncn2[C@@H]1O[C@H](C(=O)NC2CC2)C(O)[C@@H]1O` (stereo partly drawn) [Compound 18, N-Cyclopropyl 2-{3-[1-(4-nitrobenzloxycarbonyl)-4-piperidinyl]-1-propyn-1-yl}adenosine-5′-uronamide], the results for the inhibition constant (Ki) in test [1], in test [2] and in test [4] were < 100 nM, < 100 nM and < 1 nM, respectively. The EC50 in test [3] was < 1 nM.
